The record followed here is the PolyMetriX glass transition set.

`*/C=C/CC(C*)c1ccccc1` (repeat unit) displayed a glass transition temperature of 14.00 °C. Under `*/N=N/c1ccc(NC(=O)CCC(=O)Nc2ccc(*)cc2)cc1` (repeat unit) stands 220.00 °C. As to `*C(=O)NCCCCCCNC(=O)c1ncn(C)c1*` (repeat unit), the glass transition temperature came to 86.00 °C. The compound `*C(=O)c1ccc2c(c1)C(=O)N(C1CCC(CC3CCC(N4C(=O)c5ccc(*)cc5C4=O)C(C)C3)CC1C)C2=O` (repeat unit) showed a glass transition temperature of 240.00 °C. `*C/C=C/CS(*)(=O)=O` (repeat unit) showed a glass transition temperature of 86.00 °C. To `*C/C=C/C[Si](*)(C)CCCOc1ccc2ccccc2c1` (repeat unit) belongs -1.00 °C; to `*C1CCC(CC2CCC(N3C(=O)C4C5C=CC(C6C(=O)N(*)C(=O)C56)C4C3=O)C(C)C2)CC1C` (repeat unit), 241.00 °C.

In the case of `*CC(=O)NCCCCCCNC(=O)CC1COC(*)CO1` (repeat unit), the glass transition temperature turned out to be 73.00 °C.

The compound `*CC(C)(C)C1CC=C(*)CC1` (repeat unit) registered a glass transition temperature of 77.00 °C. In the case of `*CC(CCCCCCCCCCCCCCCC)C1C(=O)N(CCCCNC(=O)C(F)(F)C(F)(F)C(F)(F)C(F)(F)C(F)(F)C(F)(F)C(F)(F)F)C(=O)C1*` (repeat unit), the glass transition temperature was 63.00 °C.

As to `*CC(OC)C1C(=O)N(c2ccc(N(C)C)cc2)C(=O)C1*` (repeat unit), the glass transition temperature stood at 221.00 °C. For the compound `*CC(OCCCC)C1(C)C(=O)OC(=O)C1(*)C` (repeat unit), the glass transition temperature turned out to be 197.00 °C. Under `*CC(OCCCC)C1C(=O)OC(=O)C1*` (repeat unit) stands 118.00 °C; under `*CC(c1ccccc1)C1C(=O)N(c2ccc(NC(=O)OCC3CCCN3c3ccc([N+](=O)[O-])cc3)cc2)C(=O)C1*` (repeat unit), 208.00 °C; under `*CC1(C)CC(*)(C)C(=O)OC1=O` (repeat unit), 144.00 °C. For the compound `*CC1CC(*)C(=O)OC1=O` (repeat unit), the glass transition temperature is 140.00 °C. As to `*CC1CC(*)C(OC(=O)CCCCCCCCCCOc2ccc(-c3ccc(C#N)cc3)cc2)C1` (repeat unit), the glass transition temperature stood at 30.50 °C. To `*CC1CCCC(Cn2c(=O)c3cc4c(=O)n(*)c(=O)c4cc3c2=O)C1` (repeat unit) belongs 263.00 °C. `*CCC(C(=O)OC)C(*)C(=O)OC` (repeat unit) had a glass transition temperature of 31.20 °C. The compound `*CCC(C)C(*)C` (repeat unit) gave a glass transition temperature of -26.00 °C.

In turn, `*CCC1CC(*)C2C3CCC(C3)C12` (repeat unit) displayed a glass transition temperature of 164.00 °C. Turning to `*CCCCCCNC(=O)CCP(C)(=O)CCC(=O)N*` (repeat unit), the glass transition temperature is 57.50 °C. On to `*CCCCOC(=O)CCC(=O)O*` (repeat unit), for which the glass transition temperature was -32.00 °C.

`*CCN(CCOC(=O)CCC#CC#CCCC(=O)O*)c1ccc([N+](=O)[O-])cc1` (repeat unit) showed a glass transition temperature of 30.00 °C. `*OC(=O)CCC(=O)OC1COC2C(*)COC12` (repeat unit): the glass transition temperature turned out to be 77.00 °C. As for `*OC(C)CCC(C)OC(=O)CCCCCCCCC(*)=O` (repeat unit), the glass transition temperature is -66.00 °C. In turn, `*O[Si](C)(C)O[Si](C)(C)O[Si](C)(C)OC(C)CCC(*)C` (repeat unit) displayed a glass transition temperature of -90.00 °C. Under `*O[Si](C)(C)O[Si](C)(C)O[Si](C)(C)O[Si](C)(C)OC(C)CCC(*)C` (repeat unit) stands -96.00 °C. `*c1ccc2c(c1)C(=O)N(C1CCC(CC3CCC(N4C(=O)c5ccc(C(*)(C(F)(F)F)C(F)(F)F)cc5C4=O)C(C)C3)CC1C)C2=O` (repeat unit): the glass transition temperature is 225.00 °C.
